Patent US8329689B2 (priority 2006, dated 2012)
Structures can show the parent of a compound that is named as a salt. Where two headings read alike, the source gives them in different places.

Experiments:
virus influenza A = assay: microbe, parasite or virus in culture; format: cell-based; design: dose or concentration left out as unconfirmed; conditions: for inhibition: Influenza A virus, MDCK, dilution of virus 10^-3, read-out: % of inhibition of influenza A virus reproduction
[1] = tested on: virus of hepatitis C strain JFH-1 (genotype 2a); assay: microbe, parasite or virus in culture; format: cell-based; conditions: for Therapeutic index SI50 = TC50/IC50: HCV; for IC50: Hepatitis C virus, Huh-7.5.1, Huh7.5.1 cells, HCV JFH-1, 72 hours incubation, read-out: IC50 (IC50^HCV, antiviral activity)
in vitro = conditions: human
influenza virus = conditions: cited from earlier work
[2] = tested on: some other cellular lines; conditions: cited from earlier work

| Structure (SMILES) | inhibition (virus influenza A) | further results |
| --- | --- | --- |
| CCOC(=O)c1c(CSc2ccccc2)n(C)c2cc(C#N)c(O)c(CN3CCCC(CO)C3)c12 (centres unmarked) [1.1(11)] | < 50% |  |
| CCOC(=O)c1c(CSc2ccccc2)n(C)c2cc(C#N)c(O)c(CN(C)C)c12 [1.1(15)] |  | Therapeutic index SI50 = TC50/IC50 [1]: >4; IC50 [1]: 28 µM; CC50 (in vitro): > 100 µM |
| CCOC(=O)c1c(CSc2ccccc2)n(C)c2cc(-c3cn[nH]c3)c(O)c(CN(C)C)c12 [1.1.1(2)] | 63% |  |
| CCOC(=O)c1c(CSc2ccccc2)n(C)c2cc(-c3cc4ccccc4o3)c(O)c(CN(C)C)c12 [1.1.1(3)] | 52% |  |
| CCOC(=O)c1c(CSc2ccccc2)n(C)c2cc(-c3cc4ccccc4[nH]3)c(O)c(CN(C)C)c12 [1.1.1(4)] | 66% |  |
| CCOC(=O)c1c(CSc2ccccc2)n(C)c2cc(-c3cc4cc(OC)ccc4[nH]3)c(O)c(CN(C)C)c12 [1.1.1(5)] | 60% |  |
| CCOC(=O)c1c(CSc2ccccc2)n(C)c2cc(-c3ccc4[nH]ncc4c3)c(O)c(CN(C)C)c12 [1.1.1(6)] | 58% |  |
| CCOC(=O)c1c(CSc2ccccc2)n(C)c2cc(-c3cncnc3)c(O)c(CN(C)C)c12 [1.1.1(7), ethyl 4-((dimethylamino)methyl)-5-hydroxy-1-methyl-2-(phenylthiomethyl)-6-(pyrimidin-5-yl)-1H-indole-3-carboxylate] | 62% |  |
| CCOC(=O)c1c(CSc2ccccc2)n(C)c2cc(-c3cncc4ccccc34)c(O)c(CN(C)C)c12 [1.1.1(9)] | 88% |  |
| CCOC(=O)c1c(CO)n(C)c2cc(-c3cccnc3)c(O)c(CN(C)C)c12.Cl.Cl [1.1.2(35)] |  | Therapeutic index SI50 = TC50/IC50 [1]: >16; IC50 [1]: 6 µM; CC50 (in vitro): > 100 µM |
| CCOC(=O)c1c(C[S+]([O-])c2ccccc2)n(C)c2cc(-c3cccnc3)c(O)c(CN(C)C)c12.Cl.Cl (centres unmarked) [1.1.2(42)] |  | Therapeutic index SI50 = TC50/IC50 [1]: >5; IC50 [1]: 18 µM; CC50 (in vitro): > 100 µM |
| CCOC(=O)c1c(CN(C)C)n(C)c2cc(-c3ccccc3)c(O)c(Cn3ccnc3)c12.Cl.Cl [1.1.3(7)] |  | Therapeutic index SI50 = TC50/IC50 [1]: >1.4; IC50 [1]: 72 µM; CC50 (in vitro): > 100 µM |
| CCOC(=O)c1c(CN(C)C)n(C)c2cc(-c3cccnc3)c(O)c(CN3CCCC3)c12.Cl.Cl.Cl [1.1.5(2c), ethyl 2-((dimethylamino)methyl)-5-hydroxy-1-methyl-6-(pyridin-3-yl)-4-(pyrrolidin-1-ylmethyl)-1H-indole-3-carboxylate hydrochloride] |  | Therapeutic index SI50 = TC50/IC50 [1]: 11; IC50 [1]: 7 µM; CC50 (in vitro): 75 µM |
| CCOC(=O)c1c(CN2CCCC2)n(C)c2cc(-c3cccnc3)c(O)c(CN(C)C)c12 [1.1.5(5c), ethyl 4-((dimethylamino)methyl)-5-hydroxy-1-methyl-6-(pyridin-3-yl)-2-(pyrrolidin-1-ylmethyl)-1H-indole-3-carboxylate hydrochloride] |  | Therapeutic index SI50 = TC50/IC50 [1]: >20; IC50 [1]: < 5 µM; CC50 (in vitro): > 100 µM |
| CCOC(=O)c1c(CN2CCN(C)CC2)n(-c2ccccc2)c2ccc3c(c12)CN(C)CO3 [1.2(1)] | < 50% |  |
| Br.Br.CCOC(=O)c1c(CN2CCN(C)CC2)n(-c2ccccc2)c2ccc3c(c12)CN(C)CO3 [1.2(2)] |  | % of inhibition of influenza A virus reproduction (virus influenza A; dilution of virus 10^-3): <50% |
| CCOC(=O)c1c(CN2CCN(C)CC2)n(Cc2ccccc2)c2cc(Br)c3c(c12)CN(C)CO3 [1.2(6)] | 92% |  |
| CCOC(=O)c1c(CN2CCCCC2)n(Cc2ccccc2)c2cc(Br)c3c(c12)CN(C)CO3 [1.2(7)] | 100% |  |
| CCOC(=O)c1c(CN2CCN(c3ccccc3)CC2)n(C2CCCCC2)c2cc(Br)c3c(c12)CN(C)CO3 [1.2(9)] | 62% |  |
| CCOC(=O)c1c(CN2CCCC2)n(C2CCCCC2)c2cc(Br)c3c(c12)CN(C)CO3 [1.2(10)] | 81% |  |
| CCOC(=O)c1c(CN(C)C)n(-c2ccccc2)c2ccc3c(c12)CN(C)CO3 [1.2(11)] | 77% |  |
| CCOC(=O)c1c(CN2CCC(C)CC2)n(Cc2ccccc2)c2cc(Br)c3c(c12)CN(C)CO3 [1.2(12)] | 85% |  |

| Structure (SMILES) | inhibition (virus influenza A) | further results |
| --- | --- | --- |
| CCOC(=O)c1c(CN2CCCCC2C)n(Cc2ccccc2)c2cc(Br)c3c(c12)CN(C)CO3 (centres unmarked) [1.2(13)] | 77% |  |
| CCOC(=O)c1c(CN2CCN(CCO)CC2)n(C)c2cc(Br)c3c(c12)CN(C)CO3 [1.2(14)] | 95% |  |
| CCOC(=O)c1c(CN(C)CCO)n(C)c2cc(Br)c3c(c12)CN(C)CO3 [1.2(16)] | 90% |  |
| CCOC(=O)c1c(CNc2ccncc2)n(C)c2cc(Br)c3c(c12)CN(C)CO3 [1.2(18)] | 100% |  |
| CCOC(=O)c1c(Cn2ccnc2C)n(C)c2cc(Br)c3c(c12)CN(C)CO3 [1.2(19)] | 88% |  |
| CCOC(=O)c1c(CNc2ccc(C)cc2)n(C)c2cc(Br)c3c(c12)CN(C)CO3 [1.2(26)] | 100% |  |
| CCOC(=O)c1c(CSc2ccccc2)n(C)c2cc(C#N)c3c(c12)CN(C)CO3 [1.2(27)] | < 50% |  |
| CCOC(=O)c1c(CN(C)C)n(C)c2cc(C#N)c3c(c12)CN(C)CO3 [1.2(29)] |  | IC50 [1]: > 100 µM; CC50 (in vitro): > 100 µM |
| CCOC(=O)c1c(CNc2ccccc2)n(C)c2cc(C#N)c3c(c12)CN(C)CO3 [1.2(30)] | < 50% |  |
| CCOC(=O)c1c(CSc2ccccc2)n(C)c2cc(Br)c3c(c12)CN(CC)CO3 [1.2(31)] | 100% |  |
| CCOC(=O)c1c(CSc2nc3ccccc3[nH]2)n(-c2ccccc2)c2cc(Br)c3c(c12)CN(C)CO3 [1.2(32)] | 65% |  |
| CCCCN1COc2c(Br)cc3c(c2C1)c(C(=O)OCC)c(CSc1ccccc1)n3C [1.2(33)] | 95% |  |
| CCOC(=O)c1c(CSc2nc3ccccc3s2)n(-c2ccccc2)c2cc(Br)c3c(c12)CN(C)CO3 [1.2(34)] | < 50% |  |
| CCOC(=O)c1c(CSc2ccccc2)n(C)c2cc(Br)c3c(c12)CN(Cc1ccccc1)CO3 [1.2(35)] | 98% |  |
| CCOC(=O)c1c(CSc2cc(C)ccc2C#N)n(C)c2cc(Br)c3c(c12)CN(C)CO3 [1.2(36)] | < 50% |  |
| CCCCC1Oc2c(Br)cc3c(c2CN1C)c(C(=O)OCC)c(CSc1ccccc1)n3C (centres unmarked) [1.2(37)] | 77% |  |
| CCOC(=O)c1c(CSc2ccccc2)n(C)c2cc(Br)c3c(c12)CN(C)CO3 [1.2(38)] | 100% |  |
| CCOC(=O)c1c(CSc2ccccc2)n(C)c2cc(Br)c3c(c12)CN(C)C(c1ccccc1)O3 (centres unmarked) [1.2(39)] | 62% |  |
| CCOC(=O)c1c(CSc2ccccc2)n(C2CCCCC2)c2cc(Br)c3c(c12)CN(C)CO3 [1.2(41)] | 89% |  |
| CCOC(=O)c1c(CS(=O)(=O)c2ccccc2)n(C)c2cc(Br)c3c(c12)CN(C)CO3 [1.2(42)] | 88% |  |
| CCOC(=O)c1c(CS(=O)(=O)c2ccc(Cl)cc2)n(C)c2cc(Br)c3c(c12)CN(C)CO3 [1.2(43)] | 77% |  |
| CCOC(=O)c1c(CNc2ccccc2)n(C)c2cc(Br)c3c(c12)CN(C)CO3 [1.2(44)] | 100% |  |

| Structure (SMILES) | inhibition (virus influenza A) | further results |
| --- | --- | --- |
| CCOC(=O)c1c(CNc2ccc(Cl)cc2)n(C)c2cc(Br)c3c(c12)CN(C)CO3 [1.2(45)] | 100% |  |
| COC(=O)c1c(CSc2ccccc2)n(C)c2cc(Br)c3c(c12)CN(C)CO3 [1.2(46)] | 100% |  |
| CCOC(=O)c1c(CSc2cccs2)n(C)c2cc(Br)c3c(c12)CN(C)CO3 [1.2(47)] | 100% |  |
| CN1COc2c(Br)cc3c(c2C1)c(C(=O)OC1CCCCC1)c(CNc1ccccc1)n3C [1.2(48)] | 76% |  |
| CCOC(=O)c1c(CSc2ccc(Cl)cc2)n(C)c2cc(Br)c3c(c12)CN(C)CO3 [1.2(49)] | 90% |  |
| CCOC(=O)c1c(CSc2ccccc2)n(C)c2cc(-c3ccccc3)c(O)c(CN(C)C)c12 [1.2.1(1)] | 96% |  |
| CCOC(=O)c1c(CSc2ccccc2)n(C)c2cc(-c3cccc(O)c3)c(O)c(CN(C)C)c12 [1.2.1(2)] | 51% |  |
| CCOC(=O)c1c(CSc2ccccc2)n(C)c2cc(-c3cccc(N(C)C)c3)c(O)c(CN(C)C)c12 [1.2.1(3)] | 77% |  |
| CCOC(=O)c1c(CSc2ccccc2)n(C)c2cc(-c3cccnc3)c(O)c(CN(C)C)c12 [1.2.1(5)] | 100% |  |
| CCOC(=O)c1c(CSc2ccccc2)n(C)c2cc(-c3ccncc3)c(O)c(CN(C)C)c12 [1.2.1(6)] | 100% |  |
| CCOC(=O)c1c(CSc2ccccc2)n(C)c2cc(-c3ccc(OC)nc3)c(O)c(CN(C)C)c12 [1.2.1(8)] | 81% |  |
| CCOC(=O)c1c(CSc2ccccc2)n(C)c2cc(-c3cccnc3)c(O)c(CN3CCCC(CO)C3)c12 (centres unmarked) [1.2.1(23)] | 95% |  |
| CCOC(=O)c1c(COc2ccccc2)n(C)c2cc(-c3cccnc3)c(O)c(CN(C)C)c12 [1.2.1(29)] | 88% |  |
| CCOC(=O)c1c(CSc2ccccc2)n(C)c2cc(-c3ccncc3)c3c(c12)CN(C)CO3 [1.2.2(5)] | 100% |  |
| CCOC(=O)c1c(CSc2ccccc2)n(C)c2cc(-c3cncnc3)c3c(c12)CN(C)CO3 [1.2.2(7)] | 88% |  |
| CCOC(=O)c1c(CSc2ccccc2)n(C)c2cc(-c3cccnc3)c3c(c12)CN(C)CO3 [1.2.2(8)] | 100% |  |
| CCOC(=O)c1c(CNc2ccccc2)n(C)c2cc(-c3ccccc3)c3c(c12)CN(C)CO3 [1.2.3(7)] | 90% |  |
| CCOC(=O)c1c(CNc2ccccc2)n(C)c2cc(-c3ccncc3)c3c(c12)CN(C)CO3 [1.2.3(8)] | 100% |  |
| CCOC(=O)c1c(CN(C)C)n(C)c2cc(-c3cccnc3)c3c(c12)CN(C)CO3 [1.2.5(1c), hydrochloride] |  | Therapeutic index SI50 = TC50/IC50 [1]: 13; IC50 ([1]; GETYPE2A): 6 µM; CC50 (in vitro): 78 µM |
| CCOC(=O)c1c(CSc2ccccc2)n(C)c2cc(Br)c(O)c(CN(C)C)c12.Cl [Arbidol, ethyl 6-bromo-4-[(dimethylamino)methyl]-5-hydroxy-1-methyl-2-(phenylthiomethyl)-1H-indole-3-carboxylate hydrochloride] |  | IC50 (influenza virus): 23.2 MκΓ/ml; TC50 [2]: 15 to 25 µg/mL |
